The nature of the series: ability of solvents and dispersion mediums to dissolve the therapeutic substance (sirolimus). Format: physicochemical. The protocol: Solution 524 is a homogeneous mixture in which therapeutic substance 112 dissolves within a solvent or a solvent mixture. In one embodiment, solution 524 includes a high-capacity solvent 528 which is an organic solvent that has a high capacity to dissolve therapeutic substance 112. High capacity as utilized herein is defined as an ability to dissolve therapeutic substance 112 at concentrations greater than 500 mg of substance per milliliter of solvent. Examples of high capacity drug dissolving solvents for sirolimus and similar substances include but are not limited to tetrahydrofuran (THF), di-chloromethane (DCM), chloroform, and di-methyl-sulfoxide (DMSO). In addition to the high-capacity solvent, solution 524 may include an excipient 526 in order to assist in drug elution. In one embodiment, excipient 526 may be a surfactant such as but not limited to sorbitan fatty acid esters such as sorbitan monooleate and sorbitan monolaurate, polysorbates such as polysorbate 20, polysorbate 60, and polysorbate 80, cyclodextrins such as 2-hydroxypropyl-beta-cyclodextrin and 2,6-di-O-methyl-beta-cyclodextrin, sodium dodecyl sulfate, octyl glucoside, and low molecular weight poly(ethylene glycol)s. In another embodiment, excipient 526 may be a hydrophilic agent such as but not limited to salts such as sodium chloride and other materials such as urea, citric acid, and ascorbic acid. […]

Structures are written as SMILES.

Turning to `CO[C@H]1C[C@@H]2CC[C@@H](C)[C@@](O)(O2)C(=O)C(=O)N2CCCC[C@H]2C(=O)O[C@H]([C@H](C)C[C@@H]2CC[C@@H](O)[C@H](OC)C2)CC(=O)[C@H](C)/C=C(\C)[C@@H](O)[C@@H](OC)C(=O)[C@H](C)C[C@H](C)/C=C/C=C/C=C/1C` [sirolimus], the solubility in hexane entry (hexane (precipitator solvent)) is given as “insoluble”. Also, for the setting “water”, the solubility in water entry is on record as “insoluble”.
